In patent US7655392B2, “Quenching methods for red blood cell inactivation process” (priority 2004, dated 2010):
Read-outs that look alike come from different tables or passages of the source.

Legend:
[1] = tested on: Vesicular Stomatitis Virus (VSV); type: cell-based; conditions: Table 6A: 20 mM glutathione+2 eq base only, no PIC-1
red blood cells = type: cell-based; conditions: unit 6: 0.2 mM GSH+2 eq base, no PIC-1
Method: In another assay, the rabbit polyclonal sera may be reacted with treated red blood cells. After washing off unbound antibody, a FITC labeled goat anti-rabbit Fab′2 fragment (anti H+L chains, Caltag) is added. The binding of FITC label to the red blood cells correlates with the amount of acridine bound to the red blood cell surface, and is assessed by FACScan™ analysis (Becton, Dickinson and Co., NJ). The relative modification of the red blood cells is determined from the FACScan™ mean fluorescence value.
A 20 mL sample of leukoreduced whole blood (Blood Source, Sacramento, Calif.) was centrifuged at 4,100×g for 5 minutes at room temperature in each of four 50 mL centrifuge tubes. The supernatant was removed from each tube to provide red cell concentrate (RCC). […] For each washed RCC, cells were resuspended in 5 mL of the solution used for washing. This is now referred to as the RBC test sample. […] These samples were incubated for 20 hours at room temperature. After incubation, the RBC were washed in BBS (Blood Bank Saline, 0.9% saline, unbuffered, Fisher Scientific) and were diluted to a final hematocrit of 4%. A 25 μL aliquot of each was mixed with 15 μL of rabbit polyclonal anti-acridine sera diluted 1:100 in BBS and the mixture was incubated at 37° C. for 30 minutes. The cells were subsequently washed with 1.5 mL BBS. After washing was complete, the cells were mixed with 50 μL of FITC labeled goat anti-rabbit Fab′2 fragment (1:64 dilution in BBS) and incubated at 37° C. for 30 minutes. […] Note that the quenching improves as glutathione is neutralized with increasing amounts of sodium hydroxide.
The FACScan analysis of the binding of rabbit anti-acridine sera to treated red cells was used to assess a variety of quenching conditions. […] The tables represent data from two different experiments, each with samples treated under standard conditions or with 20 mM neutralized glutathione. […] The data within an experiment provides the relative efficacy of the various treatments. Because the assay may depend on the lot of red blood cells used, the absolute values of mean fluorescence may vary from one study to the next, such that relative values should only be compared within a given experiment. […] Neutralized glutathione at 20 mM results in close to background levels.
An untreated control sample as well as a standard sample (co-addition of 2 mM acidic glutathione with 0.2 mM PIC-1) were also assessed.
Full units of red cell concentrates (Interstate Blood Bank, Inc., Memphis, Tenn.) were leukoreduced. A volume of 200 mL of this RCC (80% hematocrit) was mixed with 94 mL of Erythrosol or 100 mL of Adsol (Baxter Healthcare Corp., Deerfield, Ill.) as control (unit 1). A volume of 20 mL 8% dextrose was used to dissolve PIC-1 (mg) and acid glutathione (mg) and added to one unit to provide 0.2 mM PIC-1 and 2 mM glutathione (unit 2). […] For the glutathione, 1.2 mL of 10 N NaOH was added (2 equivalents). The PIC-1 was mixed with the unit, followed 1 minute later (unit 3) or 5 minutes later (unit 4) by glutathione. For unit 5, neutralized glutathione was mixed first, followed 10 minutes later by the PIC-1. […] All units were mixed by grasping the ends of the blood bag and mixing in a FIG. 8 motion 30 times. These were then incubated at room temperature for 20 hours total. A compound adsorption device (CAD), comprising a polymeric resin contained within a mesh pouch, was used for all but the control sample. This device is intended to remove residual PIC-1, PIC-1 breakdown products, and glutathione from the samples. Samples were incubated for 8 hours, then transferred to a second blood bag containing the CAD and incubated for an additional 12 hours. Following the room temperature incubation, samples were transferred to a refrigerator (4° C.) and stored up to 43 days.

Question: How did the “Log VSV reduction” value [1] turn out when N[C@@H](CCC(=O)N[C@@H](CS)C(=O)NCC(=O)O)C(=O)O [glutathione, γ-L-glutamyl-L-cysteinyl-glycine] was run?
Answer: −0.04 Log

Question: And the “Log VSV titer” value [1]?
Answer: 6.25 Log

Question: What about the mean fluorescence (red blood cells; 16C day 0.8) of the same compound?
Answer: 2.16

Question: What about the mean fluorescence (red blood cells; 16C day 2) of the same compound?
Answer: 1.78

Question: And the mean fluorescence (red blood cells; 16C day 7)?
Answer: 1.58

Question: What about the mean fluorescence (red blood cells; 16C day 14) of the same compound?
Answer: 1.48

Question: And the mean fluorescence (red blood cells; 16C day 22)?
Answer: 1.58

Question: What about the mean fluorescence (red blood cells; 16C day 28) of the same compound?
Answer: 2.02

Question: What about the mean fluorescence (red blood cells; 16C day 35) of the same compound?
Answer: 1.62

Question: What about the mean fluorescence (red blood cells; 16C day 43) of the same compound?
Answer: 1.8
